{"source": "patent US20160287497A1", "about": "“USE AS A DEODORANT AGENT OF A SALIFIED SALICYLIC ACID DERIVATIVE, ALONE OR IN A MIXTURE” (L'OREAL, priority 2013, published 2016)", "key": {"Corynebacterium xerosis": {"test_system": "Corynebacterium xerosis", "assay": "Effect on Corynebacterium xerosis: growth inhibition in microplate, MIC", "format": "cell-based", "description": "• Test principle: contacting of decreasing concentrations of compounds under evaluation with an identical inoculum of microorganisms in a culture medium suitable for the growth of C. xerosis.\nThe dilutions of the compounds under evaluation are performed in agar at 1:1000, making it possible, for dispersible compounds under evaluation, to do away with the use of a solvent which could introduce bias in the evaluation of the compounds. The concentration range chosen was: 1%, 0.3%, 0.03% and 0.003%. Each concentration was tested in triplicate.\nTo ensure that the potential inhibitory activity was not associated with a pH effect, the pH of the culture medium was verified at the end of incubation.\nThe compound mixtures M0 and M2 were evaluated based on this protocol, along with n-octanoyl-5-salicylic acid (comparison)."}, "[1]": {"assay": "Anti-odor effect: ex-vivo olfactory evaluation test on incubated sweat", "description": "The deodorant activity was evaluated in the ex-vivo olfactory evaluation test, on incubated sweat.\nEach compound under evaluation was introduced at a rate of 0.3 mg into 1 mL of sweat. The compounds under evaluation were weighed in 25 or 30 mL pill bottles and 1 mL from a pool of fresh sweat was then added. The pill bottles were hermetically sealed and placed in an incubator at 35° C. for 24 hours. After being removed from the incubator, the pill bottles were opened and allowed to cool to ambient temperature.\nA panel of sixteen people performed an olfactory analysis of each pill bottle. The efficacy of each compound evaluated was determined in comparison to a negative control (incubated sweat alone)."}}}
{"smiles": "CCCCCCCC(=O)c1ccc(O)c(C(=O)O)c1", "note": "[N-octanoyl-5-salicylic acid, n-octanoyl-5-salicylic acid]", "values": [{"measurement": "MIC C. xerosis", "setting": "Corynebacterium xerosis; incubation 24 to 48 hours, Optical Density 620 nm vs growth control, range tested 1%, 0.3%, 0.03%, 0.003%, triplicate", "value": "<0.003", "unit": "%"}, {"measurement": "growth of C. xerosis (result in words)", "setting": "Corynebacterium xerosis; same protocol as Table 1", "value": "inhibit the growth of C. xerosis"}, {"measurement": "% Variation incubated sweat intensity", "setting": "[1]; 0.3 mg in 1 mL of sweat, 35° C. for 24 hours, panel of sixteen people, vs incubated sweat alone", "value": "−57", "unit": "%"}, {"measurement": "unpleasant odor of incubated sweat (result in words)", "setting": "[1]; same protocol as Table 2", "value": "reduce the unpleasant odor of incubated sweat"}]}
